Some test systems named below: DLD-1 colon; DMS 114 small cell lung; DMS 273 small cell lung; KM20L2 colon; LXFL 529 NSCLC; M19-MEL melanoma; OVCAR-8 ovarian; UACC-257 melanoma; UACC-62 melanoma; XF 498 CNS; HOP-18 NSCLC; NCI-H522 lung; SN12C renal; SNB-78 CNS; SK-OV-3 ovarian.
Holding throughout (assay): NCI anticancer screen, dose series, 48 h

Each structure is given as a SMILES string.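 Each compound was tested at five concentrations against cells in 96-well plates for 48 hours. TGI denotes the concentration required for complete inhibition of growth.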

With `N#CCc1c(-c2ccccc2)n(S(=O)(=O)c2ccccc2)c2ccccc12`, the TGI in the test on DLD-1 colon, in the test on DMS 114 small cell lung, in the test on DMS 273 small cell lung, in the test on KM20L2 colon, in the test with LXFL 529 NSCLC and with M19-MEL melanoma was > 100 µM throughout. The TGI in the test with OVCAR-8 ovarian, in the test with UACC-257 melanoma, with UACC-62 melanoma and in the test on XF 498 CNS was > 100 µM each time.

For `N/N=C1\C(=O)N(Cc2ccccc2)C(=O)C1C(=O)NCc1ccccc1` (stereo not drawn), the TGI in the test on DLD-1 colon, with DMS 114 small cell lung, with HOP-18 NSCLC, in the test on KM20L2 colon, in the test with LXFL 529 NSCLC and in the test with M19-MEL melanoma was > 100 µM each time. The TGI in the test with NCI-H522 lung, in the test on OVCAR-8 ovarian, in the test with SN12C renal, in the test on SNB-78 CNS, in the test on UACC-257 melanoma and with UACC-62 melanoma was > 100 µM each time.

For the compound `O=C(/C=C\c1cccc2ccccc12)c1ccc(F)cc1`, the TGI worked out at 37.6 µM with DLD-1 colon; 29.5 µM in the test on DMS 114 small cell lung; 29.4 µM in the test on DMS 273 small cell lung; 28.2 µM with HOP-18 NSCLC; 31.1 µM in the test on KM20L2 colon; 30.8 µM with LXFL 529 NSCLC. For the same compound, the TGI in the test with M19-MEL melanoma is 39.4 µM; with NCI-H522 lung it was 40.2 µM; with OVCAR-8 ovarian, 28.4 µM; in the test on SK-OV-3 ovarian, 58.3 µM; in the test with SN12C renal, 32.3 µM; in the test with SNB-78 CNS, 38.5 µM. For the same compound, the TGI came to 34.7 µM in the test on UACC-257 melanoma and 27.5 µM in the test on UACC-62 melanoma.

Turning to `Cc1c[n+]2c3ccccc3c3ccccc3c2s1`, the TGI in the test with DLD-1 colon was > 44.5 µM; in the test on DMS 114 small cell lung it was 16.1 µM; with DMS 273 small cell lung, 20.1 µM; with HOP-18 NSCLC, > 100 µM; in the test on LXFL 529 NSCLC, 21.6 µM; with M19-MEL melanoma it was 18.3 µM. Also, the TGI with NCI-H522 lung was 15.7 µM; in the test with OVCAR-8 ovarian it was 28.8 µM; in the test on SK-OV-3 ovarian, > 71.4 µM; in the test with SN12C renal it was 15.5 µM; in the test on SNB-78 CNS, > 29.5 µM; in the test on UACC-257 melanoma it was 18.3 µM. The results for the TGI with UACC-62 melanoma and in the test on XF 498 CNS were > 47.1 µM and 18 µM, respectively.

Consider `O=C/C1=C/C2=Cc3ccccc3C=C(/C=C(/C=O)C1)C2`, for which the TGI in the test on DLD-1 colon, with DMS 114 small cell lung, in the test on DMS 273 small cell lung, with KM20L2 colon, with LXFL 529 NSCLC and in the test on M19-MEL melanoma was > 100 µM each time. Also, the TGI with NCI-H522 lung, in the test with OVCAR-8 ovarian, with SN12C renal, in the test on SNB-78 CNS, in the test with UACC-257 melanoma and in the test with UACC-62 melanoma was > 100 µM throughout. Moreover, the TGI with XF 498 CNS was > 100 µM.

As for `Cc1cccc(-n2c(N)c(-c3nc4ccccc4[nH]3)sc2=S)c1`, the TGI was 80.1 µM with DLD-1 colon; 57.3 µM in the test on DMS 114 small cell lung; 41.7 µM in the test on DMS 273 small cell lung; > 100 µM in the test with HOP-18 NSCLC; 53.4 µM in the test on LXFL 529 NSCLC; 64 µM with M19-MEL melanoma. For the same compound, the TGI in the test with NCI-H522 lung came to 75.7 µM; in the test on OVCAR-8 ovarian, 72 µM; with SK-OV-3 ovarian, 91.7 µM; in the test with SN12C renal, 86.9 µM; in the test with UACC-257 melanoma it was 67.1 µM; in the test with UACC-62 melanoma it was 78.1 µM.

As for `N#CC(/C(CCC(=O)Nc1ccc(Cl)cc1)=N/NC(=O)c1cc2ccccc2cc1O)c1ccccc1` (stereo not drawn), the TGI with DLD-1 colon was > 100 µM; in the test with DMS 114 small cell lung, 87.7 µM; with HOP-18 NSCLC, 89.8 µM; in the test on KM20L2 colon it was > 100 µM; in the test with LXFL 529 NSCLC, > 100 µM; in the test with M19-MEL melanoma, > 100 µM. The TGI with OVCAR-8 ovarian, with SN12C renal, with SNB-78 CNS, with UACC-257 melanoma, in the test with UACC-62 melanoma and with XF 498 CNS was > 100 µM in each case.

For `COC(=O)c1cc(C(=O)OC)c(CC(=O)C(=O)NC2C3CC4CC(C3)CC2C4)nc1CC(=O)C(=O)NC1C2CC3CC(C2)CC1C3` (stereo not drawn), the TGI with DLD-1 colon, with DMS 114 small cell lung, in the test with DMS 273 small cell lung, in the test on HOP-18 NSCLC, with KM20L2 colon and in the test with LXFL 529 NSCLC was > 100 µM each time. The TGI in the test with M19-MEL melanoma, in the test on NCI-H522 lung, with OVCAR-8 ovarian, with SK-OV-3 ovarian, with SN12C renal and in the test on SNB-78 CNS was > 100 µM throughout. The TGI in the test with UACC-257 melanoma and in the test with UACC-62 melanoma was > 100 µM throughout.

With `COc1ccc(C2=NN(c3ccccc3)C[N+](c3ccc(C)cc3)=N2)cc1`, the TGI was > 100 µM in the test on DLD-1 colon; 65.1 µM in the test on DMS 114 small cell lung; > 10 µM in the test with DMS 273 small cell lung; > 100 µM with KM20L2 colon; 38.5 µM in the test on LXFL 529 NSCLC; > 100 µM in the test on M19-MEL melanoma. Besides, the TGI is 26.5 µM in the test on NCI-H522 lung; > 100 µM with OVCAR-8 ovarian; > 100 µM with SN12C renal; > 100 µM with SNB-78 CNS; > 100 µM in the test on UACC-257 melanoma; 52.9 µM in the test on XF 498 CNS.

Consider `COc1ccc(/C=C2/CSCC3=C2NC(=S)NC3c2ccc(OC)c(OC)c2OC)c(OC)c1OC` (stereo not drawn), for which the TGI with NCI-H522 lung is 97.5 µM; with OVCAR-8 ovarian, > 100 µM; with SK-OV-3 ovarian, > 100 µM; with SN12C renal it was 71.8 µM; in the test with UACC-257 melanoma it was 67.7 µM; with UACC-62 melanoma it was 45 µM.

With `O=C(O)/C(Cl)=C(\Cl)C(=O)c1ccccc1`, the TGI in the test on DLD-1 colon, with DMS 114 small cell lung, in the test on DMS 273 small cell lung, with KM20L2 colon, in the test with LXFL 529 NSCLC and in the test on M19-MEL melanoma was > 100 µM each time. Further, the TGI with NCI-H522 lung, in the test on OVCAR-8 ovarian, in the test on SK-OV-3 ovarian, with SN12C renal, in the test on SNB-78 CNS and with UACC-257 melanoma was > 100 µM in each case. In addition, the TGI in the test with UACC-62 melanoma and in the test with XF 498 CNS was > 100 µM in each case.

Values taken from PubChem BioAssay (NCI).
